Measurements: patent US9790211B2, “5-amino-quinoline-8-carboxamide derivatives as 5-HT4 receptor agonists” (SUVEN LIFE SCIENCES LIMITED, priority 2013, dated 2017)

Assays:
[1] = tested on: Aβ1-40; test: Effect on CSF Aβ1-40 level (ELISA); assay type: in vivo, Male Sprague Dawley Rat; conditions: p.o., at two hour
Experimental: (§1) The control group of male rats received a vehicle (reagent grade water) per orally by gavage at a dose volume of 10 mL/kg. The treated groups (6 rat per group) received a single dose of test compound (different doses) or DAPT (50.0 mg/kg). Two hour post dose of vehicle or test compounds, rats were anesthetized with isoflurane and CSF was collected from Cisterna magna using 0.5 mL syringes by utilizing stereotaxic frame. The CSF samples were frozen in liquid nitrogen and stored at −80° C. until ELISA was performed.
(§2) • 1. CSF samples were thawed to RT and diluted with Tris Buffer Saline containing protease inhibitors at 1:10 ratio 115:150 μL (15 μL CSI+135 μL TBS. • 2. To this diluted CSF samples 0.15 mL of EIA buffer (1:1 ratio) was added. These diluted samples were subjected for Aβ1-40 level measurement by ELISA. Measurement of Aβ1-40 by ELISA Kit:
To investigate the role of an acute treatment of test compound on Aβ1-40 levels, expression of this protein in CSF was measured in treated and untreated rat by ELISA assay. The entire procedure was followed as per ELISA kit manual (Mouse/Rat Amyloid-Aβ1-40 ELISA, Cat No: 27721, IBL International, Hamburg, Germany).
(§3) Statistical analysis was performed using the Graph Pad Prism (Version 4). Data are Mean±SD of Aβ1-40 levels expressed as percentage of control values (rat which received regent grade water). Values were compared between the different groups by using unpaired t test. The significance level was set at *p<0.05; **p<0.01; ***p<0.001.

[2] = tested on: Aβ1-42; test: Effect on CSF Aβ1-42 level (ELISA); assay type: in vivo, Male Sprague Dawley Rat; conditions: p.o., two hour post treatment
Experimental: as §1, with “by puncturing” for “from”, “frame.” for “frame. The”
as §2, with “[15:150” for “115:150”, “CSF+ 135” for “CSI+135”, “TBS],” for “TBS.”, “Aβ1-42” for “Aβ1-40”
To investigate the role of an acute treatment of test compound on Aβ1-42 levels, expression of this protein was measured in CSF of treated and untreated rat by ELISA assay. The entire procedure was followed as described in ELISA kit manual (Mouse/Rat […], Cat No: 27720, IBL International, Hamburg, Germany).
as §3, with “analyses were” for “analysis was”, “Aβ1-42” for “Aβ1-40”, “by” for “by using”

[3] = tested on: Scopolamine Induced amnesia; test: Radial arm maze; assay type: in vivo; conditions: p.o., rats
Description: The cognition enhancing properties of compounds of formula (I) of this invention were estimated by using this model.
Radial arm maze consists of a central hub of 45 cm diameter. Each arm was of dimension 42.5×15×24 cm. The maze was elevated to a height of 1 m above the ground. The animals were placed on a restricted diet until they reached approximately 85% of their free feeding weight. During this diet restriction period animals were habituated to the novel feed (pellets). Once the rats reached approximately 85% of their free feeding weight rats were habituated to the maze on the 1st and 2nd day. […] Animals were randomized on day 2. On the subsequent days the treatment was given as per the allotment: Each animal was introduced into the maze individually for a period of 10 minutes. The arms were baited only once and the animal had to learn the rule that repeated arm entries would not be rewarded. The trial ended once the rat had visited 16 arms or 10 minutes were over or all the pellets were eaten. The arm entries were recorded using the software. Once the trial was over the rat was removed and the maze was cleaned using soap water.

[4] = tested on: acetylcholine levels in the frontal cortex; test: Modulation of acetylcholine from the frontal cortex (microdialysis); assay type: in vivo, male Wistar rats; conditions: p.o.
Description: Male Wistar rats (240-300 gram body weights) were stereotaxically implanted with a microdialysis guide cannula in the frontal cortex (AP: +3.2 mm, ML: −3.2 mm, DV: −1.5 mm). Co-ordinates were taken according to Paxinos and Watson (2007) with reference points taken from bregma and vertical from the skull. The rats were allowed to recover individually for five days in a round bottom Plexiglas bowl with free access to feed and water.
One day prior to the microdialysis experiment, rats were connected to a dual quartz lined two-channel liquid swivel (Instech. UK) on a counter balance lever arm, which allowed unrestricted movements of the animal. […]
On the day of study, probe was perfused at a constant flow rate of 1.5 (μL/min with artificial cerebrospinal fluid (aCSF; NaCl 147 mM. KCl 3.0 mM, MgCl2 1.0 mM, CaCl2. 2H2O 1.3 mM, NaH2PO4.2H2O 0.2 mM and Na2HPO4. 7H2O 1.0 mM, pH 7.2). A stabilization period of 2 h was maintained and five basal samples were collected at 20 minutes intervals. The compound of Example 18 or vehicle was administered and dialysate samples were collected at 20 minutes interval for an additional period of 4 hours. Dialysates were stored below −70° C. until quantitation of acetylcholine.
Acetylcholine in dialysate was quantified in the calibration range of 0.103 nmol-103.497 nmol using LC-MS/MS method. […]

Row | Structure (SMILES) | decrease in the rat CSF Aβ1-40 levels ([1]; 0.03 mg/kg) [%] | decrease in the rat CSF Aβ1-40 levels ([1]; 0.1 mg/kg) [%] | decrease in the rat CSF Aβ1-40 levels ([1]; 0.3 mg/kg) [%] | decrease in the rat CSF Aβ1-40 levels ([1]; 1.0 mg/kg) [%] | decrease in the rat CSF Aβ1-40 levels ([1]; 3.0 mg/kg) [%] | decrease in the rat CSF Aβ1-42 levels ([2]; 0.03 mg/kg) [%] | decrease in the rat CSF Aβ1-42 levels ([2]; 0.1 mg/kg) [%] | decrease in the rat CSF Aβ1-42 levels ([2]; 0.3 mg/kg) [%] | decrease in the rat CSF Aβ1-42 levels ([2]; 1.0 mg/kg) [%] | decrease in the rat CSF Aβ1-42 levels ([2]; 3.0 mg/kg) [%] | Reversal of Scopolamine Induced amnesia - Effective dose range [3] | Area under the curve of acetylcholine change, frontal cortex (in words) ([4]; 10.0 mg/kg, vs vehicle, p<0.05) | acetylcholine levels from the frontal cortex (in words) ([4]; 3.0 and 10.0 mg/kg, male Wistar rats)
1 | Nc1c(Cl)cc(C(=O)NCC2CCN(CC3CCOCC3)CC2)c2ncccc12.O=C(O)/C=C/C(=O)O [Example 1, 5-Amino-6-chloro-N-{[1-(tetrahydro-2H-pyran-4-ylmethyl)-4-piperidinyl]methyl}quinoline-8-carboxamide hemifumarate] | 27 | 24 | 40 | 22 | 29 | 25 | 21 | 35 | 22 | 26 | – | – | –
2 | Nc1c(Cl)cc(C(=O)NCC2CCN(CC3CCOCC3)CC2)c2ncccc12.O=C(O)C(O)C(O)C(=O)O [Example 13, 5-Amino-6-chloro-N-{[1-(tetrahydro-2H-pyran-4-ylmethyl)-4-piperidinyl]methyl} quinoline-8-carboxamide L(+)-tartarate] | – | – | – | – | – | – | – | – | – | – | 0.1-1 mg/kg, p.o. | significant | dose dependent increase
